Drawing on ChEMBL document CHEMBL4622899, “Synthesis and anticancer activity of open-resorcinarene conjugates” (Bioorg Med Chem Lett, 2020), this text covers IC50 for 11 compounds.

The subject of one experiment is U-251. Briefly: Anticancer activity against human U251 cells assessed as cell growth inhibition measured after 48 hrs by MTT assay. Format: functional, cell-based. (Formazan colour is commonly taken as a measure of viable cells.)
The test system of a further experiment is PC-3. Briefly: Anticancer activity against human PC3 cells assessed as cell growth inhibition measured after 48 hrs by MTT assay. The class given is functional, cell-based.
Another experiment relates to K562. Briefly: Anticancer activity against human K562 cells assessed as cell growth inhibition measured after 48 hrs by MTT assay. Format: functional, cell-based.
The subject of another experiment is HCT-15. Briefly: Anticancer activity against human HCT15 cells assessed as cell growth inhibition measured after 48 hrs by MTT assay. Format: functional, cell-based.
Another experiment concerns MCF7. Briefly: Anticancer activity against human MCF7 cells assessed as cell growth inhibition measured after 48 hrs by MTT assay. Format: functional, cell-based.
For a further experiment, the system named is SK-LU-1. Briefly: Anticancer activity against human SKLU1 cells assessed as cell growth inhibition measured after 48 hrs by MTT assay. The class given is functional, cell-based.
The next experiment deals with COS-7. Briefly: Cytotoxicity against African green monkey COS7 cells assessed as cell growth inhibition measured after 48 hrs by MTT assay. Format: cell-based, Chlorocebus aethiops.
Setting [1] is: Homo sapiens, U-251, 48 h, read-out: IC50.
Where [2] appears, read: Homo sapiens, PC-3, 48 h, read-out: IC50.
The mark [3] stands for this setting: Homo sapiens, K562, 48 h, read-out: IC50.
Setting [4] is: Homo sapiens, HCT-15, 48 h, read-out: IC50.
The mark [5] stands for this setting: Homo sapiens, MCF7, 48 h, read-out: IC50.
Setting [6] is: Homo sapiens, SK-LU-1, 48 h, read-out: IC50.
The mark [7] stands for this setting: Chlorocebus aethiops, COS-7, 48 h, read-out: IC50.

Consider `O=C(COc1cc(OCC(=O)NCCO)c(C(c2ccc(C(c3cc(Cl)c(OCC(=O)NCCO)cc3OCC(=O)NCCO)c3cc(Cl)c(OCC(=O)NCCO)cc3OCC(=O)NCCO)cc2)c2cc(Cl)c(OCC(=O)NCCO)cc2OCC(=O)NCCO)cc1Cl)NCCO`, for which the IC50 result in the experiment on U-251 (u-251), in the experiment on PC-3 (pc-3), with K562 (k562), in the experiment with HCT-15 (hct-15), in the experiment on MCF7 (mcf7) and in the experiment with SK-LU-1 (sk-lu-1) was “Not Active” in each case. Also, the IC50 – broadly, the concentration that gives 50% inhibition – in the experiment on COS-7 (cos-7) was “Not Active”.

Consider `COc1ccc2cc([C@H](C)C(=O)OCCNC(=O)COc3cc(OCC(=O)NCCOC(=O)[C@@H](C)c4ccc5cc(OC)ccc5c4)c(C(c4ccc(C(c5cc(Cl)c(OCC(=O)NCCOC(=O)[C@@H](C)c6ccc7cc(OC)ccc7c6)cc5OCC(=O)NCCOC(=O)[C@@H](C)c5ccc6cc(OC)ccc6c5)c5cc(Cl)c(OCC(=O)NCCOC(=O)[C@@H](C)c6ccc7cc(OC)ccc7c6)cc5OCC(=O)NCCOC(=O)[C@@H](C)c5ccc6cc(OC)ccc6c5)cc4)c4cc(Cl)c(OCC(=O)NCCOC(=O)[C@@H](C)c5ccc6cc(OC)ccc6c5)cc4OCC(=O)NCCOC(=O)[C@@H](C)c4ccc5cc(OC)ccc5c4)cc3Cl)ccc2c1`, for which the IC50 in the experiment with U-251 (setting [1]) was 50.3 µM; with PC-3 (setting [2]) it was greater than 1 mM; in the experiment with K562 (setting [3]) it was greater than 1000 µM; with HCT-15 (setting [4]), greater than 1 mM; with MCF7 (setting [5]) it was greater than 1000 µM; in the experiment on SK-LU-1 (setting [6]) it was greater than 1000 µM. Besides, the IC50 with COS-7 (setting [7]) was greater than 1 mM.

`CC(C)Cc1ccc(C(C)C(=O)OCCNC(=O)COc2cc(OCC(=O)NCCOC(=O)C(C)c3ccc(CC(C)C)cc3)c(C(c3ccc(C(c4cc(Cl)c(OCC(=O)NCCOC(=O)C(C)c5ccc(CC(C)C)cc5)cc4OCC(=O)NCCOC(=O)C(C)c4ccc(CC(C)C)cc4)c4cc(Cl)c(OCC(=O)NCCOC(=O)C(C)c5ccc(CC(C)C)cc5)cc4OCC(=O)NCCOC(=O)C(C)c4ccc(CC(C)C)cc4)cc3)c3cc(Cl)c(OCC(=O)NCCOC(=O)C(C)c4ccc(CC(C)C)cc4)cc3OCC(=O)NCCOC(=O)C(C)c3ccc(CC(C)C)cc3)cc2Cl)cc1` (configuration not stated): the IC50 in the experiment on U-251 (setting [1]) was greater than 1000 µM; in the experiment with PC-3 (setting [2]), greater than 1 mM; in the experiment with K562 (setting [3]), greater than 1000 µM; with HCT-15 (setting [4]) it was greater than 1 mM; in the experiment with MCF7 (setting [5]), greater than 1000 µM; in the experiment with SK-LU-1 (setting [6]), greater than 1000 µM. In addition, the half-inhibitory concentration (IC50) in the experiment with COS-7 (setting [7]) is greater than 1 mM.

For `COc1ccc2c(c1)c(CC(=O)OCCNC(=O)COc1cc(OCC(=O)NCCOC(=O)Cc3c(C)n(C(=O)c4ccc(Cl)cc4)c4ccc(OC)cc34)c(C(c3ccc(C(c4cc(Cl)c(OCC(=O)NCCOC(=O)Cc5c(C)n(C(=O)c6ccc(Cl)cc6)c6ccc(OC)cc56)cc4OCC(=O)NCCOC(=O)Cc4c(C)n(C(=O)c5ccc(Cl)cc5)c5ccc(OC)cc45)c4cc(Cl)c(OCC(=O)NCCOC(=O)Cc5c(C)n(C(=O)c6ccc(Cl)cc6)c6ccc(OC)cc56)cc4OCC(=O)NCCOC(=O)Cc4c(C)n(C(=O)c5ccc(Cl)cc5)c5ccc(OC)cc45)cc3)c3cc(Cl)c(OCC(=O)NCCOC(=O)Cc4c(C)n(C(=O)c5ccc(Cl)cc5)c5ccc(OC)cc45)cc3OCC(=O)NCCOC(=O)Cc3c(C)n(C(=O)c4ccc(Cl)cc4)c4ccc(OC)cc34)cc1Cl)c(C)n2C(=O)c1ccc(Cl)cc1`, the IC50 in the experiment with U-251 (setting [1]) is 23.1 µM; in the experiment with PC-3 (setting [2]) it was greater than 1 mM; in the experiment on K562 (setting [3]), greater than 1000 µM; with HCT-15 (setting [4]), greater than 1 mM; with MCF7 (setting [5]) it was greater than 1000 µM; in the experiment on SK-LU-1 (setting [6]), greater than 1000 µM. In addition, in the experiment with COS-7 (setting [7]), the 50% inhibitory concentration (IC50) was greater than 1 mM.

Turning to `COC(=O)COc1cc(OCC(=O)OC)c(C(c2ccc(C(c3cc(Cl)c(OCC(=O)OC)cc3OCC(=O)OC)c3cc(Cl)c(OCC(=O)OC)cc3OCC(=O)OC)cc2)c2cc(Cl)c(OCC(=O)OC)cc2OCC(=O)OC)cc1Cl`, the half-maximal inhibitory concentration (IC50) result in the experiment with U-251 (u-251), in the experiment with PC-3 (pc-3), with K562 (k562), in the experiment with HCT-15 (hct-15), in the experiment with MCF7 (mcf7) and in the experiment with SK-LU-1 (sk-lu-1) was “Not Active” throughout. Moreover, the IC50 entry in the experiment on COS-7 (cos-7) is “Not Active”.

For the compound `O=C(COc1cc(OCC(=O)NCCOC(=O)CCCc2ccc(N(CCCl)CCCl)cc2)c(C(c2ccc(C(c3cc(Cl)c(OCC(=O)NCCOC(=O)CCCc4ccc(N(CCCl)CCCl)cc4)cc3OCC(=O)NCCOC(=O)CCCc3ccc(N(CCCl)CCCl)cc3)c3cc(Cl)c(OCC(=O)NCCOC(=O)CCCc4ccc(N(CCCl)CCCl)cc4)cc3OCC(=O)NCCOC(=O)CCCc3ccc(N(CCCl)CCCl)cc3)cc2)c2cc(Cl)c(OCC(=O)NCCOC(=O)CCCc3ccc(N(CCCl)CCCl)cc3)cc2OCC(=O)NCCOC(=O)CCCc2ccc(N(CCCl)CCCl)cc2)cc1Cl)NCCOC(=O)CCCc1ccc(N(CCCl)CCCl)cc1`, the concentration for half-maximal inhibition (IC50) in the experiment with U-251 (setting [1]) is 24.3 µM; with PC-3 (setting [2]) it was 0.034 mM; in the experiment with K562 (setting [3]), 51.4 µM; with HCT-15 (setting [4]) it was 0.201 mM; in the experiment with MCF7 (setting [5]) it was 81 µM; with SK-LU-1 (setting [6]) it was 80 µM. In addition, the IC50 in the experiment with COS-7 (setting [7]) was greater than 1 mM.

For `Oc1cc(O)c(C(c2ccc(C(c3cc(Cl)c(O)cc3O)c3cc(Cl)c(O)cc3O)cc2)c2cc(Cl)c(O)cc2O)cc1Cl`, the half-maximal inhibitory concentration (IC50) entry in the experiment on U-251 (u-251), in the experiment with PC-3 (pc-3), in the experiment on K562 (k562), in the experiment with HCT-15 (hct-15), in the experiment on MCF7 (mcf7) and in the experiment on SK-LU-1 (sk-lu-1) was “Not Active” in each case. Moreover, the IC50 result in the experiment on COS-7 (cos-7) is on record as “Not Active”.

`O=C(O)CCCc1ccc(N(CCCl)CCCl)cc1` [CHLORAMBUCIL]: the IC50 is 33.1 µM in the experiment on U-251 (setting [1]); 0.0164 mM with PC-3 (setting [2]); 103 µM with K562 (setting [3]); 0.00311 mM in the experiment on HCT-15 (setting [4]); greater than 100 µM in the experiment with MCF7 (setting [5]); 300 µM in the experiment with SK-LU-1 (setting [6]). The half-maximal inhibitory concentration (IC50) in the experiment on COS-7 (setting [7]) was determined as 0.0435 mM.

`CC(C)Cc1ccc(C(C)C(=O)O)cc1` (configuration not stated) [IBUPROFEN]: the IC50 was greater than 1000 µM in the experiment on U-251 (setting [1]); greater than 1 mM in the experiment on PC-3 (setting [2]); greater than 1000 µM in the experiment on K562 (setting [3]); greater than 1 mM with HCT-15 (setting [4]); 92.1 µM in the experiment with MCF7 (setting [5]); 90.6 µM in the experiment on SK-LU-1 (setting [6]). Moreover, the concentration for half-maximal inhibition (IC50) with COS-7 (setting [7]) is greater than 1 mM.

In the case of `COc1ccc2c(c1)c(CC(=O)O)c(C)n2C(=O)c1ccc(Cl)cc1` [INDOMETHACIN], the IC50 in the experiment on U-251 (setting [1]) was 20.4 µM; in the experiment on PC-3 (setting [2]) it was greater than 1 mM; in the experiment on K562 (setting [3]) it was 190 µM; in the experiment on HCT-15 (setting [4]), greater than 1 mM; in the experiment with MCF7 (setting [5]) it was greater than 1000 µM; with SK-LU-1 (setting [6]), greater than 1000 µM. In addition, the IC50 with COS-7 (setting [7]) was greater than 1 mM.

`COc1ccc2cc([C@H](C)C(=O)O)ccc2c1` [NAPROXEN]: the 50% inhibitory concentration (IC50) with U-251 (setting [1]) was greater than 1000 µM; in the experiment on PC-3 (setting [2]), greater than 1 mM; in the experiment on K562 (setting [3]) it was 181 µM; with HCT-15 (setting [4]) it was greater than 1 mM; in the experiment with MCF7 (setting [5]) it was greater than 1000 µM; with SK-LU-1 (setting [6]), greater than 1000 µM. In addition, the IC50 with COS-7 (setting [7]) was greater than 1 mM.
